Experimental data taken from patent EP0705258B1, “AZOLYL-CYCLIC AMINE DERIVATIVES WITH IMMUNOMODULATORY ACTIVITY” (Knoll AG, priority 1993, dated 1995).

These compounds were tested on paw oedema (assay: Carrageenan-induced rat paw oedema test (Test E)). Conditions: oral dosing at 100 mg/kg; active = 20% or greater inhibition of paw oedema in at least two out of three tests.
Type: in vivo, rats
Procedure: Female rats, weight range 125-150 g were fasted overnight. One of the hind legs of each animal was marked with a line at the connection between the cuboid/navicular and calcaneus/talus bones. Groups of six rats were orally dosed at 10 ml/kg, in random order, with a given dose of the test compound given as a solution or suspension in 10% (w/v) aqueous acacia solution. One hour after dosing, 0.1 ml of 1% (w/v) sterile carrageenan λ in normal saline was injected deeply into the plantar surface of the marked hind foot of each rat. The volume of the foot (up to the marked line) was measured immediately after injection using duplicate water displacement readings. Three hours after injection the foot volume was measured again and the percentage increase in foot volume relative to the initial reading was calculated. The increase in foot volume (i.e. the degree of oedema) in drug treated animals when compared with that in the drug untreated control gave the degree of inhibition of paw oedema by the drug. […] Statistical significance was assessed using the Student's t test for single dose studies and Dunnett's test for multiple dose studies. More advantageous compounds were active in both Tests D and E.

| SMILES | deemed to be active in Test E |
| --- | --- |
| c1ccc(OCCN2CCC(CCn3ccnc3)CC2)cc1 [Example 87, 4-[2-(Imidazol-1-yl)ethyl]-1-(2-phenoxyethyl)piperidine] | active |
| CC(c1ccc(Cl)cc1)N1CCC(CCn2ccnc2)CC1 (stereo not drawn) [Example 93, 1-[1-(4-chlorophenyl)ethyl]-4-[2-(imidazol-1-yl)-ethyl]piperidine] | active |
| Cl.Cl.c1ccc(CCCN2CCC(CCn3ccnc3)CC2)cc1 [Example 98, 4-[2-(imidazol-1-yl)ethyl]-1-(3-phenylpropyl)piperidine dihydrochloride] | active |
